Test results: ChEMBL document CHEMBL4627384, “l-Thyroxin and the Nonclassical Thyroid Hormone TETRAC Are Potent Activators of PPARγ” (J Med Chem, 2020)
Activity calls are given as the source filed them. The rule behind the calls is not given here.

Experiments:
[1] = target: T1, Peroxisome proliferator-activated receptor gamma (Homo sapiens) (UniProt P37231); assay: Agonist activity at N-terminal GFP-fused PPARgamma LBD (unknown origin) assessed as biotin-labeled CBP recruitment incubated for 2 hrs by HT-FRET assay
T1 sequence (whole entry): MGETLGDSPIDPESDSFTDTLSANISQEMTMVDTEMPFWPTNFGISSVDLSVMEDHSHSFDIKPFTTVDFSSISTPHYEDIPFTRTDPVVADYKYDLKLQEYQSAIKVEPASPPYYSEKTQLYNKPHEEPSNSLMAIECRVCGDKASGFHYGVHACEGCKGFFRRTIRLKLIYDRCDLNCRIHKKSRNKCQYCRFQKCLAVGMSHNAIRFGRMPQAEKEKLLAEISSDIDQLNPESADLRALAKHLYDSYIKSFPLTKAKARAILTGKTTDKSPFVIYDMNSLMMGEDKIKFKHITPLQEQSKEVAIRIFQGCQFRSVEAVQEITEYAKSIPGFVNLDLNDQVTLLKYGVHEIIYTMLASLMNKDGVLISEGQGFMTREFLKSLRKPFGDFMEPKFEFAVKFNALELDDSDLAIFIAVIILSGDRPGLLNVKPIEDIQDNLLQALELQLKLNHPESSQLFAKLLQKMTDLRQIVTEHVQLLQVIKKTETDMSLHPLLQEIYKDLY

[2] = target: T2, Retinoic acid receptor RXR-alpha (Homo sapiens) (UniProt P19793); assay: Agonist activity at GFP RXRalpha LBD (unknown origin) assessed as biotin-labeled SRC-1 recruitment incubated for 2 hrs by HT-FRET assay relative to SR11237
T2 sequence (whole entry): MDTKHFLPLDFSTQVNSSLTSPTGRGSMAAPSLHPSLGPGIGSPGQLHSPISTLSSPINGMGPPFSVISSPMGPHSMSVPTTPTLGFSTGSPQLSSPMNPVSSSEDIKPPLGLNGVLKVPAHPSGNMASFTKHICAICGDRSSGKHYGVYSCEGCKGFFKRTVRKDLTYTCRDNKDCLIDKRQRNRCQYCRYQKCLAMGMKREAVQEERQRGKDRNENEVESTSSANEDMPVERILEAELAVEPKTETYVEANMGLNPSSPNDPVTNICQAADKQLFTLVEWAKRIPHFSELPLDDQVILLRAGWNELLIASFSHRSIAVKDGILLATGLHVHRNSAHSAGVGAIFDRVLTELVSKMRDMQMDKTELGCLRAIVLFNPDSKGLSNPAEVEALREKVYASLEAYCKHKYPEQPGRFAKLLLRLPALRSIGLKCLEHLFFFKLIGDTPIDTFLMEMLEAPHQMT

[3] = target: T3, Peroxisome proliferator-activated receptor gamma (Mus musculus) (UniProt P37238); assay: Agonist activity at PPARgamma in mouse 3T3L1 adipocytes assessed as induction of adiponectin mRNA expression at 1 uM by qRT-PCR analysis; type: cell-based; settings: 3T3-L1
T3 sequence (whole entry): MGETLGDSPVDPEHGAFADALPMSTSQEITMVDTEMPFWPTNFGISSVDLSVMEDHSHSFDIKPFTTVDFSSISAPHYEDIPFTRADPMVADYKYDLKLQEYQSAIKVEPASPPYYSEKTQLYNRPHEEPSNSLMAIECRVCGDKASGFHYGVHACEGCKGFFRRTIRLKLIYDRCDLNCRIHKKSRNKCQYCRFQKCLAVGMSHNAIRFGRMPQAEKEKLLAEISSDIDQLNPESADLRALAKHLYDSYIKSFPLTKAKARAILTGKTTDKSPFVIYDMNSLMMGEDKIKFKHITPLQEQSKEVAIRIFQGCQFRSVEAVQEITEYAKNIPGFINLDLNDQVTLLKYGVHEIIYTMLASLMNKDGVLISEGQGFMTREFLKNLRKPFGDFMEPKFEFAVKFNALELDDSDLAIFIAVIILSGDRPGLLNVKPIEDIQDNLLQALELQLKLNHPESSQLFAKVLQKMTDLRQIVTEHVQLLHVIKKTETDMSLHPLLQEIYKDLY

[4] = target: T3, Peroxisome proliferator-activated receptor gamma (Mus musculus); assay: Agonist activity at PPARgamma in mouse 3T3L1 adipocytes assessed as induction of LPL mRNA expression at 1 uM by qRT-PCR analysis; type: cell-based; settings: 3T3-L1
[5] = target: T3, Peroxisome proliferator-activated receptor gamma (Mus musculus); assay: Agonist activity at PPARgamma in mouse 3T3L1 adipocytes assessed as induction of FABP4 mRNA expression at 1 uM by qRT-PCR analysis; type: cell-based; settings: 3T3-L1
[6] = target: T1, Peroxisome proliferator-activated receptor gamma (Homo sapiens); assay: Agonist activity at PPARgamma in human HepG2 cells without THRB knockdown assessed as induction of CD36 expression at 1 uM incubated for 8 hrs in by Western blot analysis; type: cell-based
[7] = target: T4, Hepatocyte nuclear factor 4-alpha (Homo sapiens) (UniProt P41235); assay: Agonist activity at recombinant human pFA-CMV-fused HNF4alpha LBD expressed in HEK293T cells transfected with pFR-luciferase plasmid and pRL-SV40 plasmid at 1 uM incubated for 14 to 16 hrs by dual glo luciferase reporter gene assay; type: cell-based; settings: HEK-293T
T4 sequence (whole entry): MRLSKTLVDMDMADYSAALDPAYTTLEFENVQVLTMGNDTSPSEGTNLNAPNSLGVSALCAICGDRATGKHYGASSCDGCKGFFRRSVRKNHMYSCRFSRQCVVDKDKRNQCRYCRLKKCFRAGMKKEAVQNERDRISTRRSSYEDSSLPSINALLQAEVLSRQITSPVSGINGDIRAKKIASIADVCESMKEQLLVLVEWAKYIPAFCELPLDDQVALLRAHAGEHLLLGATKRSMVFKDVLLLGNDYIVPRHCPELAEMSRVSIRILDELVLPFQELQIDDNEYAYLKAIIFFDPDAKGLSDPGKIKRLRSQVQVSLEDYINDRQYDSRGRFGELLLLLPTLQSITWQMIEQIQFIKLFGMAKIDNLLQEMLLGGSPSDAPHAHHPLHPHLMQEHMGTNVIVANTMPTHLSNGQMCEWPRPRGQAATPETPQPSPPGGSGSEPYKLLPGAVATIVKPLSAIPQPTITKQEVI

[8] = target: T5, Thyroid hormone receptor beta (Homo sapiens, UniProt P10828); assay: Agonist activity at THRbeta (unknown origin) incubated for 14 to 16 hrs by dual glo luciferase reporter gene assay
T5 sequence (P10828 whole entry): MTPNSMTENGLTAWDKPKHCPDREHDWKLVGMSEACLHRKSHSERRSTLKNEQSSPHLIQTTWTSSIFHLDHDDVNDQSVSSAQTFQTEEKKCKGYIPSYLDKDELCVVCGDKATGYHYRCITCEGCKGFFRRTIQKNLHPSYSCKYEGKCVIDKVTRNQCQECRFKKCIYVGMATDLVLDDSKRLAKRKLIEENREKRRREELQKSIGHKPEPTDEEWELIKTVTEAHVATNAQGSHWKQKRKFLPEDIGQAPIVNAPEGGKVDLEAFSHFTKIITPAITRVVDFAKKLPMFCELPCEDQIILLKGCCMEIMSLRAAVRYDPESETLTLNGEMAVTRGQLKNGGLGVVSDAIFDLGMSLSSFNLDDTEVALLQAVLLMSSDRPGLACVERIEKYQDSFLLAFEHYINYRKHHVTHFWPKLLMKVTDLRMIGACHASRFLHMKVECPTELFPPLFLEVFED

[9] = Drug level in human serum by RIA; type: ADME, cell-free; settings: read-out: Drug uptake

- Activity [1]: Active
- Activity [2]: 8.2%
- Activity [3]: Active
- Activity [4]: Active
- Activity [5]: Active
- Activity [6]: Active
- Activity [7]: Active
- EC50 [8]: 20 nM
- concentration [9]: 1.6 nM
Compound: O=C(O)Cc1cc(I)c(Oc2cc(I)c(O)c(I)c2)c(I)c1 [TETRAC]
